# “And” between values parts separate entries of the source, which are not always exact repeats. Equal values may be shown once.
# Legend:
# [1] = system: MCF-7 breast cancer cells; experiment: MTT cytotoxicity assay; assay type: cell-based; conditions: for IC50: MCF-7 cells, MTT, 48 h, mean ± SD of three independent values; for fold higher potency than reference drug staurosporine against MCF-7: versus staurosporine
# Description: The National Research Institute in Egypt donated the breast cancer (MCF-7) cells, which were collected and cultured in RPMI-1640 medium L-glutamine (Lonza Verviers SPRL, Verviers, Belgium, cat#12-604F). The 10% fetal bovine serum (FBS; Sigma-Aldrich, St. Louis, MO, USA) and 1% penicillin-streptomycin (Lonza, Belgium) were given to each of the two cell lines.
# All cells were cultured, following routine tissue culture work, in 5% CO2 humidified at 37 °C. Cells were exposed to compounds at concentrations of 0.01, 0.1, 1, 10, and 100 μM on the second day of culturing. After 48 h, cell viability was evaluated using the MTT solution (Promega, Madison, WI, USA). MTT dye (20 μL) was placed into each well, and the plate was then incubated for three hours. Absorbance was subsequently measured at 570 nm using the ELISA microplate reader (BIO-RAD, model iMark, Tokyo, Japan), and the percentage of cell viability was calculated, compared to control, as (mean absorbance of tested compound)/(mean absorbance in control) × 100. Finally, IC50 values were found using the nonlinear dose–response sigmoidal curve in GraphPad Prism 7 [39].
# [2] = system: MCF-7 cells; experiment: Wound-healing assay (scratch assay); assay type: cell-based; conditions: MCF-7, treated at IC50 of compound, 48 h, mean ± SD
# Description: The wound-healing test was mentioned in previous research. Six-well plates containing starvation media were filled with four […] MCF-7 cells per well, and the plates were subsequently incubated at 37 °C for the whole night. A sterile 1 mL pipette tip was used to generate a scratch of the cell monolayer once it was established the following day that the cells had adhered to the well and that cell confluence had reached 90%. Starvation media was used to clean the cells before they were removed from the plates. […] After 48 h, the medium was immediately changed to PBS, the wound gap was examined, and cells—both control and treated—were captured on camera with a digital camera attached to an Olympus microscope. The region where the wound closes was measured.
# [3] = system: MCF-7 cells; experiment: Annexin V/PI staining flow cytometry (apoptosis/necrosis); assay type: cell-based; conditions: MCF-7, treated at IC50, 48 h
# Description: (§1) Annexin V/PI staining and cell cycle analysis […] MCF-7 cells were added to 6-well culture plates, which were then placed in the incubator for the night. […] Following that, PBS was rinsed with ice-cold water before cells and media supernatants were gathered. The cells were then treated with “Annexin V-FITC solution (1:100) and propidium iodide (PI)” at a concentration of 10 µg/mL for 30 min in the dark after being suspended in […] of annexin-binding buffer solution, which was composed of 25 mM CaCl2, 1.4 M NaCl, and 0.1 M Hepes/NaOH, pH 7.4. Then, labeled cells were collected using the Cytoflex FACS system. The data were assessed using the cytExpert program.
# [4] = system: MCF-7 cells; experiment: DNA content flow cytometry (cell cycle analysis); assay type: cell-based; conditions: MCF-7, treated at IC50, 48 h
# Description: as §1
# [5] = biological target: T1, AKT-1 (Homo sapiens, UniProt P31749); experiment: Kinase inhibitory assay (ELISA kit); assay type: biochemical; conditions: average of three independent replicates; read-out: IC50 ± SD AKT-1
# T1 construct: purchased Bioscience, USA #78038
# T1 sequence (P31749 whole entry): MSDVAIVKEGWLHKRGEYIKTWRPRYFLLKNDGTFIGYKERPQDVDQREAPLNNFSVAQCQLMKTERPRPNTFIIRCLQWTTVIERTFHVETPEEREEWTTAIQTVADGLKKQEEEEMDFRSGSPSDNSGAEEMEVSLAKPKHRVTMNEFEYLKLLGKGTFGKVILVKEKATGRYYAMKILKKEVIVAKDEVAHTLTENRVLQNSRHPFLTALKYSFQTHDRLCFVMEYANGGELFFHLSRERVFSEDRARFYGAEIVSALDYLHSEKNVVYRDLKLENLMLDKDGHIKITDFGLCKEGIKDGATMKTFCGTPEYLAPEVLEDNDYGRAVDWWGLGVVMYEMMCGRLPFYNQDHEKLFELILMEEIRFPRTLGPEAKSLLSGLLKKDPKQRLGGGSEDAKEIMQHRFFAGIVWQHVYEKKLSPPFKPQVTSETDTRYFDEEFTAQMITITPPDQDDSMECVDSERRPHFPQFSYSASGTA
# Description: (§2) The following calculation was used to compute the proportion that chemicals inhibited autophosphorylation: […]. Using the GraphPad prism7 program, the IC50 was calculated using the curves of percentage inhibition of five concentrations of each chemical.
# [6] = biological target: T2, CDK2 (Homo sapiens, UniProt P24941); experiment: Kinase inhibitory assay (ELISA kit); assay type: biochemical; conditions: average of three independent replicates; read-out: IC50 ± SD CDK2
# T2 construct: purchased Bioscience, USA #79599
# Description: as §2
# [7] = biological target: T3, EGFR (Homo sapiens, UniProt P00533); experiment: Kinase inhibitory assay (ELISA kit); assay type: biochemical; conditions: average of three independent replicates; read-out: IC50 ± SD EGFR
# T3 construct: purchased Bioscience, USA #40321
# Description: as §2
# [8] = biological target: T4, PI3K-α (Homo sapiens, UniProt P42336); experiment: Kinase inhibitory assay (ELISA kit); assay type: biochemical
# T4 construct: purchased Bioscience, USA #40639
# T4 sequence (P42336 whole entry): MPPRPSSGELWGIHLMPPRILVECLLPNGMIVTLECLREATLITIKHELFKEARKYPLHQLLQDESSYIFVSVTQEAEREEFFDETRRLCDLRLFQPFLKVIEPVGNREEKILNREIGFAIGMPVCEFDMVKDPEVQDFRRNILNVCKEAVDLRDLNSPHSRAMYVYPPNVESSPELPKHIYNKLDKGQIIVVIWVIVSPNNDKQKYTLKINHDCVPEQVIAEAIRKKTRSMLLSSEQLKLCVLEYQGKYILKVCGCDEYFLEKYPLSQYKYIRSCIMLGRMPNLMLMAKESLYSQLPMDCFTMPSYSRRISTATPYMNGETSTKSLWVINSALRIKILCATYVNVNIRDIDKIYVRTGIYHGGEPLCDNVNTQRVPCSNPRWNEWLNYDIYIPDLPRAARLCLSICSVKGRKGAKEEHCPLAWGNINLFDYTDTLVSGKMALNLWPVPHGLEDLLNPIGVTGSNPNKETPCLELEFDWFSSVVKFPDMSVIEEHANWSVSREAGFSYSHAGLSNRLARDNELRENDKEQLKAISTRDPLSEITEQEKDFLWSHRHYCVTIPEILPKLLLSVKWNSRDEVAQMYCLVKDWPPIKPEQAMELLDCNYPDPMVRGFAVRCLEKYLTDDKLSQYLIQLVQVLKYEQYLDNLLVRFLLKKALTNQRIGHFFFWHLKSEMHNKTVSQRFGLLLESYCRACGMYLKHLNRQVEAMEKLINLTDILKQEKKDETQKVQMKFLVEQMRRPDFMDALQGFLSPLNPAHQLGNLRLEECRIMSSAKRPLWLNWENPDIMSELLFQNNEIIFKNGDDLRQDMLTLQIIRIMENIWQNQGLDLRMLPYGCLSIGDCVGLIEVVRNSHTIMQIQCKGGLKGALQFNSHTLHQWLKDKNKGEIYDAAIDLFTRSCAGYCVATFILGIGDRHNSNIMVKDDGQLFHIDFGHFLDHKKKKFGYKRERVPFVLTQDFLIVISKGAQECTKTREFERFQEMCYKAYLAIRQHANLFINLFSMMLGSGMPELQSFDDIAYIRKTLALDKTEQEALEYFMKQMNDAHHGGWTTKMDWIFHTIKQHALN
# T4 sequence (P27986 whole entry partner): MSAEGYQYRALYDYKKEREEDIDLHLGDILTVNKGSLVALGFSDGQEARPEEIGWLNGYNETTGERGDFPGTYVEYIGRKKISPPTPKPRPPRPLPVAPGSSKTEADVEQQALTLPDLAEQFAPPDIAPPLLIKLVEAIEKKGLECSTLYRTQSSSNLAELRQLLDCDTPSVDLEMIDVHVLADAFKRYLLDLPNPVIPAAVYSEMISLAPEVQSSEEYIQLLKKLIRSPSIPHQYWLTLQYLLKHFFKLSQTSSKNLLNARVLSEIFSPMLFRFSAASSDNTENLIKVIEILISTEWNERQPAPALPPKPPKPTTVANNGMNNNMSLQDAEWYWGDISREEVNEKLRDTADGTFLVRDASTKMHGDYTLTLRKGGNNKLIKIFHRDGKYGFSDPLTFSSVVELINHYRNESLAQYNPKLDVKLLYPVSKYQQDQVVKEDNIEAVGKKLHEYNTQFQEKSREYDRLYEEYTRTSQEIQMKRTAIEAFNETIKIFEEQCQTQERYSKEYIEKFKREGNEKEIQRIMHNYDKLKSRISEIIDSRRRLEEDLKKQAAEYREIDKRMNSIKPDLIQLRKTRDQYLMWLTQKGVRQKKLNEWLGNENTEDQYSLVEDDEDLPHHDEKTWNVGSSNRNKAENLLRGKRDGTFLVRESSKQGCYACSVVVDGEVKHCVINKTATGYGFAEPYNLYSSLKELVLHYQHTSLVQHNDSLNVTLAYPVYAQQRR
# Description: as §2
# [9] = biological target: T5, PI3K-β (Homo sapiens, UniProt P42338); experiment: Kinase inhibitory assay (ELISA kit); assay type: biochemical; conditions: average of three independent replicates; read-out: IC50 ± SD PI3K-β
# T5 construct: purchased Bioscience, USA #79802
# T5 sequence (P42338 whole entry): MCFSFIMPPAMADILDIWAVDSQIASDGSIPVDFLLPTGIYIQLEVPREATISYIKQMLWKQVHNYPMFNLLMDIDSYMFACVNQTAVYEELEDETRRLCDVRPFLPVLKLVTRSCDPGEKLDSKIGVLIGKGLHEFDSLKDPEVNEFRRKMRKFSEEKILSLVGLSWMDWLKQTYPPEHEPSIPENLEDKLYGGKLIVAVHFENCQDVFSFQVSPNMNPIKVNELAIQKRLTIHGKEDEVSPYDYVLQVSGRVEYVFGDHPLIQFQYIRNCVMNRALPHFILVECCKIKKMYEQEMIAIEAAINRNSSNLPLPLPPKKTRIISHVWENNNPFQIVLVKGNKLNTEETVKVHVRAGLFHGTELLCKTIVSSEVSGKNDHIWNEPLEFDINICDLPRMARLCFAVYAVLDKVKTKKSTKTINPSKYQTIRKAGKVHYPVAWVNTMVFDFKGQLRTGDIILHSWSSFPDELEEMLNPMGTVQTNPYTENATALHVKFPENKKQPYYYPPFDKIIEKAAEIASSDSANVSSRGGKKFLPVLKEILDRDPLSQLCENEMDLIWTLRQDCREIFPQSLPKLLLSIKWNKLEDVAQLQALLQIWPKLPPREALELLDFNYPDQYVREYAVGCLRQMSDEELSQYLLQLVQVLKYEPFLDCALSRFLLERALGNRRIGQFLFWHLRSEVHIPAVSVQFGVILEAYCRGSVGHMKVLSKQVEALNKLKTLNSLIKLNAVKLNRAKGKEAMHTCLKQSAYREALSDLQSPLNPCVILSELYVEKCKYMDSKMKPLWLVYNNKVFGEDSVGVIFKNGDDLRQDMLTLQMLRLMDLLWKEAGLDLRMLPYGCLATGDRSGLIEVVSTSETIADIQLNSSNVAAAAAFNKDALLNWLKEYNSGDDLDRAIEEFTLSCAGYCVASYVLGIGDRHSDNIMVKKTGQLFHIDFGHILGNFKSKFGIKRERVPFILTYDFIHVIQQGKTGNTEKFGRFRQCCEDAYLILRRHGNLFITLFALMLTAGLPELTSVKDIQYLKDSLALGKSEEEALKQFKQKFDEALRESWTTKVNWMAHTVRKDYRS
# T5 sequence (P27986 whole entry partner): as the sequence (P27986 whole entry partner) above
# Description: as §2
# [10] = biological target: T6, PI3K-δ (Homo sapiens, UniProt O00329); experiment: Kinase inhibitory assay (ELISA kit); assay type: biochemical; conditions: average of three independent replicates; read-out: IC50 ± SD PI3K-δ
# T6 construct: purchased Bioscience, USA #40628
# T6 sequence (O00329 whole entry): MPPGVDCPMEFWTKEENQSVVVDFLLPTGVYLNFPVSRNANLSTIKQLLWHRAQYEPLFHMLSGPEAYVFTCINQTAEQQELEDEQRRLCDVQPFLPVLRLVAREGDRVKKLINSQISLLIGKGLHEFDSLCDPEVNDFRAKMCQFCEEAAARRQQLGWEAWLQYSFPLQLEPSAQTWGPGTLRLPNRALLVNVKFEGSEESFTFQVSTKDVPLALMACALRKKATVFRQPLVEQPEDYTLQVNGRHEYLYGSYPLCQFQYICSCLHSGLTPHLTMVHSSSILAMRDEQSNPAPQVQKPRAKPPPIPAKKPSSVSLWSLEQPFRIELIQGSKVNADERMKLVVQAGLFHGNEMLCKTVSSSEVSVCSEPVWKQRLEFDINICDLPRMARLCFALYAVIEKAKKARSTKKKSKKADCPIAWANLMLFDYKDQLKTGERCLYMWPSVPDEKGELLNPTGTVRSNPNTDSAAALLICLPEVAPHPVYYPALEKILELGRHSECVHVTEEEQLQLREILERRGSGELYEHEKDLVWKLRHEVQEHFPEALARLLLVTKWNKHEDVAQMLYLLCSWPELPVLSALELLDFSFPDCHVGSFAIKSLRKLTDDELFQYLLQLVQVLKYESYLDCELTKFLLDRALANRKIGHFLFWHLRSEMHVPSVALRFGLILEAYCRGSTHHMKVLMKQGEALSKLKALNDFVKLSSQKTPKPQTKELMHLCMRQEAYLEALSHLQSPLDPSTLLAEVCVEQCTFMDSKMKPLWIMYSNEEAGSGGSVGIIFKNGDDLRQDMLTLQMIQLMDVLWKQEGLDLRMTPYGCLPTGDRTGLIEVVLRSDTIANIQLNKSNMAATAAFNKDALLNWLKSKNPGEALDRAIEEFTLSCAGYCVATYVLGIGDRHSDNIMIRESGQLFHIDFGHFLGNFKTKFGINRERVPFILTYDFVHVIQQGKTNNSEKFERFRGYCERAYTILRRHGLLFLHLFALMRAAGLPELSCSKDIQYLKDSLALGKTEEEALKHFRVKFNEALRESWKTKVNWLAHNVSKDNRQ
# T6 sequence (P27986 whole entry partner): as the sequence (P27986 whole entry partner) above
# Description: EGFR (catalog #40321), CDK2 (catalog #79599), AKT (catalog #78038), PI3K-α (catalog #40639), β (catalog #79802), and δ (catalog #40628) kinase inhibitions were conducted using an ELISA kit in accordance with the manufacturer instructions from Bioscience, USA. To assess the inhibitory potency of compound 5 against the kinase activity, kinase inhibitory tests were carried out. The following calculation was used to compute the proportion that chemicals inhibited autophosphorylation: […]. Using the GraphPad prism7 program, the IC50 was calculated using the curves of percentage inhibition of five concentrations of each chemical.
# [11] = system: Solid Ehrlich carcinoma (SEC); experiment: In vivo antitumor activity in SEC-bearing mice; design: species or system Swiss albino mice; conditions: IP, 5 mg/kg; for solid tumor mass: SEC control 398.1 mg; for tumor proliferation inhibition (TIR%): TIR% = C − T/C × 100
# Description: The Suez Canal University Research Ethics Committee gave the experimental procedure their seal of approval (approval number REC219/2023, Faculty of Science, Suez Canal University). The full, detailed methodology is supported in the Supplementary Materials.
# Animals and tumor cell line
# Adult female Swiss albino mice purchased from Theodor Bilharzia Research Institute, Giza, Egypt, with an average body weight of (18-23) g was used. Mice were housed under constant conditions of 12 h light/dark cycle in a […], with free access to standard laboratory mice food and water .All procedures related to care and maintenance of the animals were performed according to the international guiding principles for animal research and approved by Faculty of Science, Suez Canal University bioethics and animal ethics committee (Approval […]
# Solid Ehrlich carcinoma (SEC) were got from the National Cancer Institute (Cairo University, Egypt). The tumor cell line was proliferated in mice through serial intraperitoneal (I.P.) transplantation of a volume of 0.2 mL physiological saline contains 1 × 10^6 viable cells for 24 h. SEC cells were collected 7 days after I.P. implantation. The harvested cells were diluted with saline to obtain a concentration of 5 × 10^6 viable SEC cells/mL. A volume of 0.2 mL saline contains 1 × 10^6 SEC cells that were I.P. implanted into each normal mouse. SEC cells (1 × 10^6 tumor cells/mouse) were implanted subcutaneously into the right thigh of the hind limb.
# The experimental animals were randomly divided into four groups. Group 1 served as the normal saline control (5 mL/kg B.Wt., I.P.). Group 2 served as the SEC control (1 × 10^6 cells/mouse). Group 3 served as the compound-treated group (5 mg/kg B.Wt., I.P.).
# Group 4 received the standard anticancer drug of Doxorubicin (DOX) (5 mg/kg BW, I.P.) and is considered as a reference control. Body weight and survival were recorded daily until the 24th day in both treated and control groups. At the end of experiment, the blood of each group was collected under light anesthesia for estimation of hematological and biochemical assays. The anesthetized animals were then sacrificed for evaluation of the antitumor activity and histopathological examination.
# It includes tumor volume, weight, and tumor inhibition ration (TIR%). Time interval measurements of tumor volume using digital Vernier caliper (Tricle Brand, Shanghai, […]
# China). Measure tumor length and width using clipper and then calculate tumor volume using formulations V = (L x W x W)/2, where V is tumor volume, W is tumor width, L is […]
# tumor length. […]
SMILES,melting point [°C],"IC50 ([1]; Homo sapiens, MCF7, 48 h) [µM]","%Closure, MCF-7 (wound closure) [2]",Annexin V/PI Staining Early (early apoptosis) [3] [%],Annexin V/PI Staining Late (late apoptosis) [3] [%],Annexin V/PI Staining Necrosis [3] [%],Annexin V/PI Staining Total (total cell death) [3],DNA Content %G0-G1 [4] [%],DNA Content %G2/M [4] [%],DNA Content %Pre-G1 [4] [%],DNA Content %S [4],further results
"CCOC(=O)c1[nH]c2ccccc2c1C=O [Compound 1, ethyl 3-formyl-1H-indole-2-carboxylate]",,19.7 ± 2.31,,,,,,,,,,
"CCOC(=O)c1[nH]c2ccccc2c1/C=N/N=C/c1c(C(=O)OCC)[nH]c2ccccc12 [Compound 5, Diethyl 3,3’-((1E,1’E)-hydrazine-1,2-diylidenebis(methaneylylidene))bis(1H-indole-2-carboxylate)]",,2.73 ± 0.14,48.88% and 48.8%,7.11,22.24,9.91,39.26%,39.07,4.74,39.26,56.2% and 56.19%,"fold higher potency than reference drug staurosporine against MCF-7 [1]: 3 fold; apoptosis (apoptosis ratio, early + late) [3]: 29.35%; IC50 [5]: 0.602 ± 0.03 µM; IC50 [6]: 0.156 ± 0.01 µM; IC50 [7]: 0.058 ± 0.029 µM; IC50 ([8]; average of three independent replicates, read-out: IC50 ± SD PI3K-α): 1.73 ± 0.1 µM; fold higher potency than LY294002 against PI3K-α ([8]; versus LY294002): 4.92 fold; IC50 [9]: 2.27 ± 0.11 µM; IC50 [10]: 2.68 ± 0.15 µM; tumor volume [11]: 56.4 mm^3; solid tumor mass [11]: 126.5 mg; tumor proliferation inhibition (TIR%) [11]: 46.9%"
"O=c1[nH]cc(F)c(=O)[nH]1 [Compound 5-FU, 5-FU, reference compound]",,,,,,,,,,,,tumor volume [11]: 43.7 mm^3; solid tumor mass [11]: 110 mg; tumor proliferation inhibition (TIR%) [11]: 58.8%
"CCOC(=O)c1[nH]c2ccccc2c1/C=N/n1c(-c2cc3ccccc3[nH]2)n[nH]c1=S [Compound 8, Ethyl (E)-3-(((3-(1H-indol-2-yl)-5-thioxo-1,5-dihydro-4H-1,2,4-triazol-4-yl)imino)methyl)-1H-indole-2-carboxylate]",,4.38 ± 0.23,60.74% and 60.7%,2.27,13.45,8.66,24.4% and 24.38%,47.10,6.57,24.38,46.31%,"fold higher potency than reference drug staurosporine against MCF-7 [1]: up to 1.9 fold; apoptosis (apoptosis ratio, early + late) [3]: 15.72%"
"CCOC(=O)c1[nH]c2ccccc2c1/C=N/Nc1ccc([N+](=O)[O-])cc1[N+](=O)[O-] [Compound 12, Ethyl (E)-3-((2-(2,4-dinitrophenyl)hydrazineylidene)methyl)-1H-indole-2-carboxylate]",,,51.85% and 51.8%,4.59,17.44,15.02,37% and 37.05%,59.33,2.55,37.05,38.10%,"IC50 ([1]; Homo sapiens, MCF7): 7.03 ± 0.37 µM"
"O=c1cc(N2CCOCC2)oc2c(-c3ccccc3)cccc12 [LY294002, reference compound]",,,,,,,,,,,,IC50 [10]: 0.85 ± 0.05 µM

# Continued, in another order:
melting point [°C],SMILES,"IC50 ([1]; Homo sapiens, MCF7, 48 h) [µM]","%Closure, MCF-7 (wound closure) [2]",Annexin V/PI Staining Early (early apoptosis) [3] [%],Annexin V/PI Staining Late (late apoptosis) [3] [%],Annexin V/PI Staining Necrosis [3] [%],Annexin V/PI Staining Total (total cell death) [3],DNA Content %G0-G1 [4] [%],DNA Content %G2/M [4] [%],DNA Content %Pre-G1 [4] [%],DNA Content %S [4],further results
229 to 230,"CCOC(=O)c1[nH]c2ccccc2c1/C=N/NC(N)=S [Compound 3, Ethyl (E)-3-((2-carbamothioylhydrazineylidene)methyl)-1H-indole-2-carboxylate]",9.42 ± 0.57,,,,,,,,,,IC50 [1]: 10.2 ± 0.53 µM
285 to 286,"CCOC(=O)c1[nH]c2ccccc2c1/C=N/NC(N)=O [Compound 6, Ethyl (E)-3-((2-carbamoylhydrazineylidene)methyl)-1H-indole-2-carboxylate]",10.2 ± 0.53,,,,,,,,,,IC50 [1]: 9.42 ± 0.57 µM
270 to 271,"CCOC(=O)c1[nH]c2ccccc2c1/C=N/Nc1ccc([N+](=O)[O-])cc1 [Compound 10, Ethyl (E)-3-((2-(4-nitrophenyl)hydrazineylidene)methyl)-1H-indole-2-carboxylate]",25.4 ± 1.54,,,,,,,,,,

# From PMC10748079, “Discovery of Potent Indolyl-Hydrazones as Kinase Inhibitors for Breast Cancer: Synthesis, X-ray Single-Crystal Analysis, and In Vitro and In Vivo Anti-Cancer Activity Evaluation” (Pharmaceuticals, 2023)
